From US11738072B2, “Tumor vaccine and uses thereof” (WestVac Biopharma Co., Ltd., priority 2017, dated 2023)

Test system: lysosomes in A549 cells
Assay: Lysosomal acidity gradient by Lysotracker Red / YOYO1 probes
Assay type: cell-based
Settings: flow cytometry, 1 h, 3 h, 6 h and 9 h
Procedure: a. Preparation of YOYO1 working fluid: the YOYO1 stock solution was diluted with 1640 serum-free medium at the volume ratio of 1:200;
b. The pMVA-1 plasmid was added to the YOYO1 working fluid prepared in the Step (1) according to a volume ratio of 1:40, and incubated at 37° C. for 1 h.
a. The YOYO1 fluorescent labeled pMVA-1 plasmid prepared in Step 1 was mixed with the DOTAP cationic lipid to form a complex;
b. The YOYO1 fluorescently labeled pMVA-1/DOTAP complex prepared in Step a was added to A549 cells, followed by making two control groups i.e. YOYO1 fluorescently labeled pMVA-1 plasmid group (PMVA) and DOTAP cationic lipid group (DOTAP), and blank control group containing cell culture fluid only.
(1) Preparation of Lysotracher Red working fluid: the Lysotracher Red stock solution was added to the cell culture fluid at a volume ratio of 1:20000 and incubated at 37° C.
a. The A549 cell culture fluid in Step 1 was removed, the Lysotracker Red staining working fluid prepared in Step (1) was added to the cells, and incubated at 37° C. for 1 h; […]
c. A549 cells in Step b were collected and the number of fluorescent cells were quantitatively tested by flow cytometry.

SMILES: CCCCCCCC/C=C\CCCCCCCC(=O)OCC(C[N+](C)(C)C)OC(=O)CCCCCCC/C=C\CCCCCCCC (stereo not shown) [DOTAP, 1,2-dioleoyl-3-trimethylammonium-propane]
- Lysotracker Red fluorescence intensity: did not change significantly
